Measurements: US20090143400A1, “PURINE DERIVATIVES HAVING IMMUNO-MODULATING PROPERTIES” (priority 2005, published 2009)
≈ marks a conversion by molar mass, not a printed value.

What was measured:
[1] = Solubility testing; type: physicochemical; details: aqueous buffer, thermodynamic from solid; 0.1 M phosphate buffer, shaken overnight at 20° C., HPLC/UV; Examples of the invention
Description: Saturated solutions for determining the solubility were prepared by placing about 0.3-3.0 ml of 0.1 M phosphare buffer in glass screw-top sample tubes along with some of the test compound. The tubes were then shaken overnight at constant temperature (20° C.). After shaking, undissolved material should be present in the solution, and more test compound should be added and shaking continued if this is not the case. The samples were then transferred to a centrifuge tube and centrifuged using a Heraeus Biofuge Fresco centrifuge at 13000 rpm for 30 minutes. The supernatant was then removed, placed in a new centrifuge tube and centrifuged again for 30 minutes at 13000 rpm. The undissolved material formed a pellet at the bottom of the tube and the liquid above the pellet was removed and was ready for assaying. The solution was then analysed using HPLC with UV quantification. A standard was also prepared by accurately weighing a sample of the test compound and dissolving it in a suitable volume of a solvent that will dissolve it completely (typically, DMSO, ethanol or methanol). This sample was then analysed by HPLC/UV.
The solubility was calculated from the observed peak areas in the HPLC/UV chromatograms along with corrections for any dilutions of the sample and differences in injection volumes. The following equation was used: […]

[2] = test system: rat spleen cells; type: cell-based
[3] = biological target: T1, human TLR7 (Homo sapiens, UniProt Q9NYK1); assay: Human TLR7 assay (HEK293 SEAP reporter); type: cell-based; details: minimal effective concentration to induce SEAP release; HEK293 with recombinant human TLR7, overnight incubation at 37° C., 0.1% DMSO
T1 construct: expressed in transfected cells; host or cells: HEK293 cell line stably expressing the pNiFty2-SEAP reporter plasmid
T1 sequence (Q9NYK1 27-1049): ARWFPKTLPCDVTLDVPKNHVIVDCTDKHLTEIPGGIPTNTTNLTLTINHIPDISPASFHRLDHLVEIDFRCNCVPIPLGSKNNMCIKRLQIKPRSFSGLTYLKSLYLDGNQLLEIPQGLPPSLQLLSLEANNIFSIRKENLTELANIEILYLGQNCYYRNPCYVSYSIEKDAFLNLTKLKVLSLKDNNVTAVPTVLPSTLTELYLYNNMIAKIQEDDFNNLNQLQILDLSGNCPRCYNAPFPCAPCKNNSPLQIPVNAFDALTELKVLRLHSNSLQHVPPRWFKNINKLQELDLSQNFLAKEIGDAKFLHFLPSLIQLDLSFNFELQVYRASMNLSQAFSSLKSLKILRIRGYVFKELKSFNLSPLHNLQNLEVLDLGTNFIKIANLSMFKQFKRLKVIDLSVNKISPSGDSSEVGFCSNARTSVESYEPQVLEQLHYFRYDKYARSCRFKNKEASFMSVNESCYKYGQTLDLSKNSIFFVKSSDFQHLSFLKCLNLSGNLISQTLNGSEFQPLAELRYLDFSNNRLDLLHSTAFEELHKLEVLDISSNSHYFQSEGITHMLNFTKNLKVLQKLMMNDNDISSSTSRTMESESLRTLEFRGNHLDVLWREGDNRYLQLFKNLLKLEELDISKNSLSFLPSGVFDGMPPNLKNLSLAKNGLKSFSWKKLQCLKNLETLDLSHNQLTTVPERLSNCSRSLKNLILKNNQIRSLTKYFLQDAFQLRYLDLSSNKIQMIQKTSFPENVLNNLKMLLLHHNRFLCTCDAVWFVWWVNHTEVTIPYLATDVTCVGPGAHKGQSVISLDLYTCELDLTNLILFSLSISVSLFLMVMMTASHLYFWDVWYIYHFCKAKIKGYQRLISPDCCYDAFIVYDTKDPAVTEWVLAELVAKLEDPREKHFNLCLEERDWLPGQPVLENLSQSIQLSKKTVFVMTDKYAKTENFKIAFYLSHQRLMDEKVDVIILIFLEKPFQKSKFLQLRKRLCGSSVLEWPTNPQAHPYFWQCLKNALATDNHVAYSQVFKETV
Description: Recombinant human TLR7 was stably expressed in a HEK293 cell line already stably expressing the pNiFty2-SEAP reporter plasmid; integration of the reporter gene was maintained by selection with the antibiotic zeocin. The most common variant sequence of human TLR7 (represented by the EMBL sequence AF240467) was cloned into the mammalian cell expression vector pUNO and transfected into this reporter cell-line. Transfectants with stable expression were selected using the antibiotic blasticidin. In this reporter cell-line, expression of secreted alkaline phosphatase (SEAP) is controlled by an NFkB/ELAM-1 composite promoter comprising five NFkB sites combined with the proximal ELAM-1 promoter. TLR signaling leads to the translocation of NFkB and activation of the promoter results in expression of the SEAP gene. TLR7-specific activation was assessed by determining the level of SEAP produced following overnight incubation of the cells at 37° C. with the standard compound in the presence of 0.1% (v/v) dimethylsulfoxide (DMSO). Concentration dependent induction of SEAP production by compounds was expressed as the minimal effective concentration of compound to induce SEAP release (pMEC).

Structure (SMILES) | solubility [1] | Log MEC [2] | pMEC [3]
CCCCOc1nc(N)c2[nH]c(=O)n(CCCCN(CCCN3CCN(C)CC3)Cc3cccc(CC(=O)OC)c3)c2n1 [Example 6, Methyl [3-({[4-(6-amino-2-butoxy-8-oxo-7,8-dihydro-9H-purin-9-yl)butyl][3-(4-methylpiperazin-1-yl)propyl]amino}methyl)phenyl]acetate] | 1210 µg/mL (≈ 2030 µM) | 9.0 | 
CCCCOc1nc(N)c2[nH]c(=O)n(CCCN(CCCN3CCN(C)CC3)Cc3cccc(CC(=O)OC)c3)c2n1 [Example 3, Methyl [3-({[3-(6-amino-2-butoxy-8-oxo-7,8-dihydro-9H-purin-9-yl)propyl][3-(4-methylpiperazin-1-yl)propyl]amino}methyl)phenyl]acetate] | 850 µg/mL (≈ 1460 µM) | 9.5 | 7.7
CCCCOc1nc(N)c2[nH]c(=O)n(CCCN(CCCNC)Cc3cccc(CC(=O)OC)c3)c2n1 [Example 5, Methyl [3-({[3-(6-amino-2-butoxy-8-oxo-7,8-dihydro-9H-purin-9-yl)propyl][3-(methylamino)propyl]amino}methyl)phenyl]acetate] | 1820 µg/mL (≈ 3540 µM) | 9.5 | 7.2
CCCCOc1nc(N)c2[nH]c(=O)n(CCCN(CCCN3CCCC3)Cc3cccc(CC(=O)OC)c3)c2n1 [Example 2, Methyl (3-{[[3-(6-amino-2-butoxy-8-oxo-7,8-dihydro-9H-purin-9-yl)propyl](3-pyrrolidin-1-ylpropyl)amino]methyl}phenyl)acetate] | 1940 µg/mL (≈ 3500 µM) | 9.5 | 7.4
CCCCOc1nc(N)c2[nH]c(=O)n(CCCN(CCN(C)C)Cc3cccc(CC(=O)OC)c3)c2n1 [Example 4, Methyl [3-({[3-(6-amino-2-butoxy-8-oxo-7,8-dihydro-9H-purin-9-yl)propyl][2-(dimethylamino)ethyl]amino}methyl)phenyl]acetate] | 830 µg/mL (≈ 1620 µM) | 9.5 | 
CCCCOc1nc(N)c2[nH]c(=O)n(CCCN(CCCN(C)C)Cc3cccc(CC(=O)OC)c3)c2n1 [Example 1, Methyl [3-({[3-(6-amino-2-butoxy-8-oxo-7,8-dihydro-9H-purin-9-yl)propyl][3-(dimethylamino)propyl]amino}methyl)phenyl]acetate] | 980 µg/mL (≈ 1860 µM) | 9.5 | 
